The values below come from US20250115628A1, “FLUORINATED FLUOROPHORES” (HOWARD HUGHES MEDICAL INSTITUTE, priority 2023, published 2025).

Several values for one entry are separate records, joined by “and”; a condition that tells them apart may be missing. Identical values can stand only once. Like-named read-outs stand apart in the source and are kept apart here.

Data set [1] is described as follows: General UV-vis and fluorescence spectroscopy. The note with it: 10 mM HEPES, pH 7.3. It counts as physicochemical. Here is the method: Spectroscopy was performed using 1^−cm path length, 3.5^−mL quartz cuvettes or 1^−cm path length, 1.4^−mL semi-micro quartz cuvettes from Starna Cells. All measurements were taken at ambient temperature (22±2° C.). Absorption spectra were recorded on a Cary Model 100 spectrometer (Agilent), and fluorescence spectra were recorded on a Cary Eclipse fluorometer (Varian). The spectra, maximum absorption wavelength (labs), extinction coefficient at λabs (8), and maximum emission wavelength (em) were measured in 10 mM HEPES, pH 7.3 buffer (rhodamines and Malachite Green derivative 49) or 0.1 M NaOH (fluoresceins); the reported values for e are averages (n=3). Normalized spectra are shown for clarity.

Data set [2] in a line: Determination of KL-Z (lactone-zwitterion equilibrium constant). Also noted: key: KL-Z = (εdw/εmax)/(1−εdw/εmax); εdw measured in 1:1 dioxane/water. The settings on record: 1:1 dioxane:H2O. It counts as physicochemical. Here is the method:
KL-Z was calculated using the following equation:^16, 18 KL-Z=(εdw/εmax)/(1−εdw/εmax). εdw is the extinction coefficient of the dyes in a 1:1 (v/v) dioxane/water solvent mixture; this dioxane/water mixture was chosen to give the maximum spread of KL-Z values across all classes of rhodamines.^18 εmax refers to the maximal extinction coefficients measured in different solvent mixtures empirically determined depending on dye type: 0.1% v/v trifluoroacetic acid in ethanol for 18, 20, 29, 34, 36, 70-72, 81-83, 93-95, 99-102, and 104; 0.1% v/v trifluoroacetic acid in 2,2,2^−trifluoroethanol for all other rhodamine variants. A accurate determination of low KL-Z values is complicated by the relatively poor sensitivity of absorbance measurements.

Data set [3] is described as follows: Quantum yield determination. The class given is physicochemical. The note with it: 10 mM HEPES, pH 7.3. Here is the method: All reported absolute fluorescence quantum yield values (Φf) were measured using a Quantaurus-QY spectrometer (model C11374, Hamamatsu). This instrument uses an integrating sphere to determine photons absorbed and emitted by a sample. Measurements were carried out using dilute samples (A<0.1), and self-absorption corrections were performed using the instrument software.^81

For data set [4] the following is noted: rhodamine derivatives; 10 mM HEPES, pH 7.3; data from the inventors' published work; cited from earlier work.

On to `CC1CC(C)(C)Nc2cc3c(cc21)C(c1c(F)c(F)c(F)c(F)c1C(=O)O)=c1cc2c(cc1O3)=NC(C)(C)CC2C` (mixture of isomers) [compound 18, JF563], for which, in data set [1] (quinolinyl rhodamines), the ε was 125,000 M^−1cm^−1, the λabs came to 563 nm and the λem is reported as 581 nm. Besides, in data set [2] (quinolinyl rhodamines), the KL-Z is 15.3. Besides, the Φf in data set [3] (quinolinyl rhodamines) is listed as 0.73.

Turning to `[2H]C1([2H])N(c2ccc3c(-c4c(F)c(F)c(F)c(F)c4C(=O)[O-])c4ccc(=[N+]5C([2H])([2H])C([2H])([2H])C([2H])([2H])C5([2H])[2H])cc-4oc3c2)C([2H])([2H])C([2H])([2H])C1([2H])[2H]` [compound 8, JFX576], in data set [1] (rhodamine derivatives), the ε was 124,000 M^−1cm^−1, the λabs stood at 576 nm and the λem is 597 nm. In data set [2] (rhodamine derivatives), this compound returned a KL-Z of 7.50. In data set [3] (rhodamine derivatives), this compound registered a Φf of 0.71.

With `CC1=CC(C)(C)N(C)c2cc3c(cc21)C(c1c(F)c(F)c(F)c(F)c1C(=O)[O-])=c1cc2c(cc1O3)=[N+](C)C(C)(C)C=C2C` [compound 11, 2,3,4,5^−Tetrafluoro-6^−(1,2,2,4,8,10,10,11^−octamethyl-1,2,10,11-tetrahydropyrano[3,2^−g:5,6^−g]diquinolin-13^−ium-6^−yl)benzoate], in data set [1] (quinolinyl rhodamines), the ε was 121,000 M^−1cm^−1, the λabs was 610 nm and the λem was 630 nm. The KL-Z in data set [2] (quinolinyl rhodamines) is on record as 7.88. Further, the Φf in data set [3] (quinolinyl rhodamines) was determined as 0.68.

In the case of `O=C([O-])c1c(F)c(F)c(F)c(F)c1-c1c2cc3c(cc2[o+]c2cc4c(cc12)CCCN4)NCCC3` [compound 14, 4,5,6,7^−Tetrafluoro-Q-rhodamine], in data set [1] (rhodamine derivatives), the ε was 118,000 M^−1cm^−1, the λabs is 558 nm and the λem turned out to be 576 nm. In data set [2] (rhodamine derivatives), this compound gave a KL-Z of 8.57. Also, the Φf in data set [3] (rhodamine derivatives) was 0.80.

On to `O=C([O-])c1c(F)c(F)c(F)c(F)c1C1=c2cc3c4c(c2Oc2c1cc1c5c2CCCN5CCC1)CCC[N+]=4CCC3` [compound 16, 4,5,6,7^−Tetrafluoro-rhodamine 101], for which, in data set [1] (rhodamine derivatives), the ε was 110,000 M^−1cm^−1, the λabs amounted to 597 nm and the λem came out at 616 nm. In data set [2] (rhodamine derivatives), this compound showed a KL-Z of 13.4. The same compound displayed a Φf in data set [3] (rhodamine derivatives) of 0.67.

Consider `CC1=CC(C)(C)Nc2cc3[o+]c4cc5c(cc4c(-c4c(F)c(F)c(F)c(F)c4C(=O)[O-])c3cc21)C(C)=CC(C)(C)N5` [compound 20, 2,3,4,5^−Tetrafluoro-6^−(2,2,4,8,10,10^−hexamethyl-1,2,10,11-tetrahydropyrano[3,2^−g:5,6^−g]diquinolin-13^−ium-6^−yl)benzoate], for which, in data set [1] (quinolinyl rhodamines), the ε is 117,000 M^−1cm^−1, the λabs worked out at 596 nm and the λem came to 614 nm. The KL-Z in data set [2] (quinolinyl rhodamines) turned out to be 7.65. The compound further came in with a Φf in data set [3] (quinolinyl rhodamines) of 0.64.

On to `[2H]C1([2H])N(c2ccc3c(c2)[Si](C)(C)C2=CC(=[N+]4C([2H])([2H])C([2H])([2H])C([2H])([2H])C4([2H])[2H])C=CC2=C3c2c(F)c(F)c(F)c(F)c2C(=O)[O-])C([2H])([2H])C([2H])([2H])C1([2H])[2H]` [compound 25, JFX673], for which, in data set [1] (rhodamine derivatives), the ε is reported as 156,000 M^−1cm^−1, the λabs stood at 673 nm and the λem amounted to 690 nm. For the same compound, the KL-Z in data set [2] (rhodamine derivatives) came out at 1.56. In addition, the Φf in data set [3] (rhodamine derivatives) is recorded as 0.42.

For the compound `CCC1=CC2=C(c3c(F)c(F)c(F)c(F)c3C(=O)O)c3cc4c(cc3[Si](C)(C)C2=CC1=NC)NCCC4` [compound 29, 4,5,6,7^−Tetrafluoro-Si-Q-rhodamine], in data set [1] (rhodamine derivatives), the ε is reported as 124,000 M^−1cm^−1; the λabs is 659 nm and 689 nm; the λem was found to be 675 nm. Further, the KL-Z in data set [2] (rhodamine derivatives) was determined as 2.39. In data set [3] (rhodamine derivatives), the Φf is reported as 0.25.

Turning to `CCc1cc2c(c3c1=[N+](C)CCC3)[Si](C)(C)c1c(cc3c4c1CCCN4CCC3)C=2c1c(F)c(F)c(F)c(F)c1C(=O)[O-]` [compound 31, JF698], in data set [1] (rhodamine derivatives), the ε was 147,000 M^−1cm^−1, the λabs is 698 nm and the λem was 712 nm. The compound also gave a Φf in data set [3] (rhodamine derivatives) of 0.28.

`CC1CC(C)(C)Nc2cc3c(cc21)C(c1c(F)c(F)c(F)c(F)c1C(=O)O)=c1cc2c(cc1[Si]3(C)C)=NC(C)(C)CC2C` (centres unmarked) [compound 34, 2,3,4,5^−Tetrafluoro-6^−(2,2,4,8,10,10,13,13^−octamethyl-2,3,4,8,9,10,11,13^−octahydrosilino[3,2^−g:5,6^−g]diquin-olin-6^−ylium-6(1H)-yl)benzoate]: in data set [1] (quinolinyl rhodamines), the ε was 129,000 M^−1cm^−1, the λabs was 660 nm and the λem stood at 676 nm. Further, in data set [2] (quinolinyl rhodamines), the KL-Z was determined as 1.90. This compound also had a Φf in data set [3] (quinolinyl rhodamines) of 0.28.

On to `CC1=CC(C)(C)Nc2cc3c(cc21)C(c1c(F)c(F)c(F)c(F)c1C(=O)O)=c1cc2c(cc1[Si]3(C)C)=NC(C)(C)C=C2C` [compound 36, 2,3,4,5^−Tetrafluoro-6^−(2,2,4,8,10,10,13,13^−octamethyl-2,10,11,13-tetrahydrosilino[3,2^−g:5,6^−g]diquinolin-6^−ylium-6(1H)-yl)benzoate], for which, in data set [1] (quinolinyl rhodamines), the ε is on record as 85,900 M^−1cm^−1, the λabs is reported as 713 nm and the λem was found to be 742 nm. Moreover, the KL-Z in data set [2] (quinolinyl rhodamines) is 1.09.

Turning to `CC1=CC(C)(C)N(C)c2cc3c(cc21)C(c1c(F)c(F)c(F)c(F)c1C(=O)[O-])=c1cc2c(cc1[Si]3(C)C)=[N+](C)C(C)(C)C=C2C` [compound 38, 2^−(1,2,2,4,8,10,10,11,13,13^−Decamethyl-2,10,11,13-tetrahydrosilino[3,2^−g:5,6^−g]diquinolin-6^−ylium-6(1H)-yl)-3,4,5,6^−tetrafluorobenzoate], in data set [1] (quinolinyl rhodamines), the ε is given as 5,700 M^−1cm^−1, the λabs stood at 754 nm and the λem is given as 774 nm. In addition, in data set [2] (quinolinyl rhodamines), the KL-Z is given as 0.3251.

Turning to `CCC1=CC2=C(c3c(F)c(F)c(F)c(F)c3C(=O)O)c3cc4c(cc3C(C)(C)C2=CC1=NC)NCCC4` [compound 47, 4,5,6,7^−Tetrafluoro-carbo-Q-rhodamine], in data set [1] (rhodamine derivatives), the ε is given as 124,000 M^−1cm^−1, the λabs is reported as 621 nm and the λem is 638 nm. In addition, in data set [2] (rhodamine derivatives), the KL-Z came out at 10.8. The same compound registered a Φf in data set [3] (rhodamine derivatives) of 0.37.

As for `CCc1cc2c(c3c1=[N+](C)CCC3)C(C)(C)c1c(cc3c4c1CCCN4CCC3)C=2c1c(F)c(F)c(F)c(F)c1C(=O)[O-]` [compound 57, JF660], in data set [1] (rhodamine derivatives), the ε was 148,000 M^−1cm^−1, the λabs is 660 nm and the λem turned out to be 673 nm. In data set [2] (rhodamine derivatives), this compound displayed a KL-Z of 7.55. The Φf in data set [3] (rhodamine derivatives) stood at 0.54.

In the case of `CCc1cc2c(c3c1=[N+](C)CCC3)C(C)(C)c1cc3c(cc1C=2c1c(F)c(F)c(F)c(F)c1C(=O)[O-])C(C)CC(C)(C)N3CC` (centres unmarked) [compound 59, JF657], in data set [1] (rhodamine derivatives), the ε is on record as 137,000 M^−1cm^−1, the λabs came to 657 nm and the λem worked out at 672 nm. In data set [2] (rhodamine derivatives), this compound returned a KL-Z of 4.97. In addition, in data set [3] (rhodamine derivatives), the Φf is 0.50.

For the compound `C=C/C=C(C=C)/[N+](C)=C1\C=CC2=C(c3c(F)c(F)c(F)c(F)c3C(=O)[O-])c3ccc(N(C)c4ccccc4)cc3C(C)(C)C2=C1` [compound 65, JQ645], in data set [1] (rhodamine derivatives), the ε is recorded as 2,700 M^−1cm^−1 and the λabs was 645 nm. The KL-Z in data set [2] (rhodamine derivatives) came out at 0.344.

Take `N=c1ccc2c(-c3c(F)c(F)c(F)c(F)c3C(=O)O)c3ccc(N)cc3oc-2c1` [compound 70, 4,5,6,7^−Tetrafluoro-rhodamine 110]: in data set [1] (rhodamine derivatives), the ε is 84,500 M^−1cm^−1, the λabs amounted to 516 nm and the λem turned out to be 536 nm. The compound also displayed a KL-Z in data set [2] (rhodamine derivatives) of 9.81. Further, the Φf in data set [3] (rhodamine derivatives) is 0.64.

Take `CC1=CC(C)(C)Nc2cc3c(cc21)C(c1ccccc1C(=O)O)=c1cc2c(cc1[Si]3(C)C)=NC(C)(C)C=C2C` [compound 102, 2^−(2,2,4,8,10,10,13,13-Octamethyl-2,10,11,13-tetrahydrosilino[3,2^−g:5,6^−g]diquinolin-6^−ylium-6(1H)-yl)-benzoate]: in data set [1] (quinolinyl rhodamines), the ε is 4,800 M^−1cm^−1, the λabs was 686 nm and the λem came out at 711 nm. This compound also registered a KL-Z in data set [2] (quinolinyl rhodamines) of 0.0143.

In the case of `CC1=CC(C)(C)N(C)c2cc3c(cc21)C(c1ccccc1C(=O)[O-])=c1cc2c(cc1[Si]3(C)C)=[N+](C)C(C)(C)C=C2C` [compound 104, 2^−(1,2,2,4,8,10,10,11,13,13^−Decamethyl-2,10,11,13-tetrahydrosilino[3,2^−g:5,6^−g′]diquinolin-6^−ylium-6(1H)-yl)-benzoate], in data set [1] (quinolinyl rhodamines), the ε is 1,200 M^−1cm^−1, the λabs is 720 nm and the λem was 740 nm. The KL-Z in data set [2] (quinolinyl rhodamines) was 0.0045.

Turning to Si-Q-rhodamine [compound 95], in data set [4], the λabs is 637 nm.
